Laboratory results as given in ChEMBL document CHEMBL1201862, “PubChem BioAssay data set” (2004).
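1) Cells in 96-well plates. 2) Compound, 48 h, 5 concentrations. 3) Linear interpolation between surrounding doses. 4) Unreached endpoint = highest concentration. At the GI50, growth is halved.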 Activity calls are given as the source filed them. Cut-off read from the data, not from the text of the source: active = GI50 up to about 1.1 µM and inactive = higher.

Assays:
Test in all cases: NCI anticancer screen, dose series, 48 h
NCI-H522 = test system: NCI-H522
UACC-62 = test system: UACC-62
OVCAR-5 = test system: OVCAR-5
UO-31 = test system: UO-31
T47D = test system: T47D
K562 = test system: K562
HCT-116 = test system: HCT-116
ACHN = test system: ACHN
SNB-19 = test system: SNB-19
NCI-H23 = test system: NCI-H23
786-0 = test system: 786-0
LOX IMVI = test system: LOX IMVI
SR = test system: SR
DU-145 = test system: DU-145
RXF 393 = test system: RXF 393
CAKI-1 = test system: CAKI-1
U-251 = test system: U-251
KM12 = test system: KM12
MDA-MB-435 = test system: MDA-MB-435
SK-MEL-28 = test system: SK-MEL-28

| SMILES | GI50 (NCI-H522) | GI50 (UACC-62) | GI50 (OVCAR-5) | GI50 (UO-31) | GI50 (T47D) | GI50 (K562) | GI50 (HCT-116) | GI50 (ACHN) | GI50 (SNB-19) | GI50 (NCI-H23) | GI50 (786-0) | GI50 (LOX IMVI) | GI50 (SR) | GI50 (DU-145) | GI50 (RXF 393) | GI50 (CAKI-1) | GI50 (U-251) | GI50 (KM12) | GI50 (MDA-MB-435) | GI50 (SK-MEL-28) |
| --- | --- | --- | --- | --- | --- | --- | --- | --- | --- | --- | --- | --- | --- | --- | --- | --- | --- | --- | --- | --- |
| COc1ccc2oc(=O)cc(C)c2c1 | > 100 µM (inactive) | > 100 µM (inactive) | > 100 µM (inactive) | 91.4 µM (inactive) | 0.0733 µM (active) | > 100 µM (inactive) | > 100 µM (inactive) | > 100 µM (inactive) | > 100 µM (inactive) | > 100 µM (inactive) | > 100 µM (inactive) | > 100 µM (inactive) | > 100 µM (inactive) | > 100 µM (inactive) | > 100 µM (inactive) | > 100 µM (inactive) | > 100 µM (inactive) | > 100 µM (inactive) | > 100 µM (inactive) | > 100 µM (inactive) |
| COc1ccccc1N1C(=O)/C(=C\c2cccc(Oc3ccccc3)c2)SC1c1ccccc1 (stereo not given) | 24.1 µM (inactive) | 5.75 µM (inactive) | > 100 µM (inactive) | 51.3 µM (inactive) | 27.2 µM (inactive) | 15 µM (inactive) | 16.5 µM (inactive) | 35.5 µM (inactive) | 31 µM (inactive) | 18.3 µM (inactive) | 39.2 µM (inactive) | 21.6 µM (inactive) | 19.6 µM (inactive) | 57.5 µM (inactive) | 56.9 µM (inactive) | > 100 µM (inactive) | 38.4 µM (inactive) | 42.6 µM (inactive) | 28.6 µM (inactive) | 46.9 µM (inactive) |
| CCC(CN(C)C)C(=O)c1ccco1 (stereo not given) | 14.5 µM (inactive) | > 100 µM (inactive) | > 100 µM (inactive) | > 100 µM (inactive) | > 100 µM (inactive) | > 100 µM (inactive) | > 100 µM (inactive) | > 100 µM (inactive) | > 100 µM (inactive) | > 100 µM (inactive) | > 100 µM (inactive) | > 100 µM (inactive) | > 100 µM (inactive) | > 100 µM (inactive) | > 100 µM (inactive) | > 100 µM (inactive) | > 100 µM (inactive) | > 100 µM (inactive) | > 100 µM (inactive) | > 100 µM (inactive) |
| CC(C)(C)OC(=O)C(C1NC(C(=O)O)C(C)(C)S1)N1C(=O)c2ccccc2C1=O (stereo not given) | > 100 µM (inactive) | > 100 µM (inactive) | > 100 µM (inactive) | > 100 µM (inactive) | > 100 µM (inactive) | > 100 µM (inactive) | > 100 µM (inactive) | > 100 µM (inactive) | > 100 µM (inactive) | > 100 µM (inactive) | > 100 µM (inactive) | > 100 µM (inactive) | > 100 µM (inactive) | > 100 µM (inactive) | > 100 µM (inactive) | > 100 µM (inactive) | > 100 µM (inactive) | > 100 µM (inactive) | > 100 µM (inactive) | > 100 µM (inactive) |
| CCOC(=O)CCC(NC(=O)c1ccc(OCc2nc3ccccc3n3cccc23)cc1)C(=O)OCC (stereo not given) | 6.59 µM (inactive) | > 100 µM (inactive) | > 100 µM (inactive) | > 100 µM (inactive) | 20 µM (inactive) | 16.5 µM (inactive) | 36.3 µM (inactive) | 54.5 µM (inactive) | 55.5 µM (inactive) | 29.9 µM (inactive) | 74.3 µM (inactive) | 42.8 µM (inactive) | 9.62 µM (inactive) | 74.1 µM (inactive) | 36.6 µM (inactive) | > 100 µM (inactive) | 17.3 µM (inactive) | 4.83 µM (inactive) | 80.4 µM (inactive) | > 100 µM (inactive) |
| CC[C@@]1(O)C(=O)OCc2c1cc1n(c2=O)Cc2c-1nc1ccc(O)cc1c2CC[Si](C)(C)C | 0.00291 µM (active) | < 0.001 µM (active) | 0.0272 µM (active) | 0.00497 µM (active) | < 0.001 µM (active) | 0.00839 µM (active) | < 0.001 µM (active) | < 0.001 µM (active) | < 0.001 µM (active) | < 0.001 µM (active) | < 0.001 µM (active) | < 0.001 µM (active) | < 0.001 µM (active) | < 0.001 µM (active) | 0.00279 µM (active) | < 0.001 µM (active) | < 0.001 µM (active) | 0.0514 µM (active) | 0.00766 µM (active) | 0.0402 µM (active) |
| COC1CC(C)(NC(=O)C(F)(F)F)C2OC(c3ccccc3)OCC2O1 (stereo not given) | > 100 µM (inactive) | > 100 µM (inactive) | > 100 µM (inactive) | > 100 µM (inactive) | > 100 µM (inactive) | > 100 µM (inactive) | > 100 µM (inactive) | > 100 µM (inactive) | > 100 µM (inactive) | > 100 µM (inactive) | > 100 µM (inactive) | > 100 µM (inactive) | > 100 µM (inactive) | > 100 µM (inactive) | > 100 µM (inactive) | > 100 µM (inactive) | > 100 µM (inactive) | > 100 µM (inactive) | > 100 µM (inactive) | > 100 µM (inactive) |
| O=CC1OC(=O)c2cc(O)c(O)c(O)c2-c2c(cc(O)c(O)c2O)C(=O)OC1C1OC(=O)c2cc(O)c(O)c(O)c2-c2c(O)c(O)c3oc(=O)c4c(c(O)c(O)c5oc(=O)c2c3c54)-c2c(cc(O)c(O)c2O)C(=O)OCC1O (stereo not given) | 18.2 µM (inactive) | 29.4 µM (inactive) | 29.6 µM (inactive) | 23.4 µM (inactive) | 43.1 µM (inactive) | 26.7 µM (inactive) | 16.9 µM (inactive) | 35.2 µM (inactive) | 72.3 µM (inactive) | 30.8 µM (inactive) | 18.7 µM (inactive) | 11.2 µM (inactive) | 39.7 µM (inactive) | 50.6 µM (inactive) | 57 µM (inactive) | 12.1 µM (inactive) | 17.9 µM (inactive) | 20.3 µM (inactive) | 22.3 µM (inactive) | > 100 µM (inactive) |
| CCOC(=O)c1nc2cc(Cl)ccc2[nH]c1=O | > 100 µM (inactive) | > 100 µM (inactive) | > 100 µM (inactive) | > 100 µM (inactive) | > 100 µM (inactive) | > 100 µM (inactive) | > 100 µM (inactive) | > 100 µM (inactive) | > 100 µM (inactive) | > 100 µM (inactive) | > 100 µM (inactive) | > 100 µM (inactive) | > 100 µM (inactive) | > 100 µM (inactive) | > 100 µM (inactive) | > 100 µM (inactive) | > 100 µM (inactive) | > 100 µM (inactive) | > 100 µM (inactive) | > 100 µM (inactive) |
| COC1=CC(=O)C(C2CC(=O)c3c(O)cc(O)cc3O2)=CC1=O (stereo not given) | 15.4 µM (inactive) | 16.4 µM (inactive) | 19.6 µM (inactive) | 18 µM (inactive) | 14.4 µM (inactive) | 5.86 µM (inactive) | 16.1 µM (inactive) | 15.9 µM (inactive) | 25 µM (inactive) | 20.5 µM (inactive) | 13.1 µM (inactive) | 16.3 µM (inactive) | 5.74 µM (inactive) | 19 µM (inactive) | 19.1 µM (inactive) | 18 µM (inactive) | 18.5 µM (inactive) | 17.3 µM (inactive) | 16.2 µM (inactive) | 16.9 µM (inactive) |
